Data taken from US5081148A, “Blocking agents of EDRF effect or formation for the treatment of shock” (Societe de Conseils de Recherches et d'Applications …, priority 1989, dated 1992).

Assays:
[1] = system: thoracic aorta rings; assay: Contractile responses of thoracic aorta rings from endotoxin-treated rats (PE-induced contraction, loss of tonicity), organ bath; design: species or system Sprague Dawley rats; settings: rings from endotoxin-treated animals; compounds of the invention at 10, 30 or 100 μM, with or without endothelium
Protocol: Sprague Dawley rats (220-330 g) received a 10 mg/kg ip injection of Escherichia Coli endotoxin (0114B4 Sigma). After 3 hours, rats were sacrificed by cervical dislocation and the thoracic aorta removed and cleaned of the surrounding tissue. Rings 2 mm wide were suspended under a tension of 2 g at 37° C. in organ bath containing 10 ml of Krebs Henseleit physiological solution and gassed with 95% O2 /5% CO2. Contractile responses were measured using force displacement transducers (Auguet M., Delaflotte S., P. E. Chabrier, P. Braquet Comparative effects of endotelin and phorbol 12-13 dibutyrate in rat aorta. Life Sci. 45, 21, 2051-2059, 1989).
In some experiments, the endothelium was gently disrupted (-E). Phenylephrine (PE) induced contraction was stable over the time in control rings of animals receiving saline solution (0.9% NaCl) with (E+) or without (E-) endothelium. The arginine derivative (10, 30 or 100 μM) had no significant effect per se.
This phenomenon was accentuated with intact endothelium (E+).
In some experiments, the compounds of the invention were introduced in the bath 105 minutes after PE when the tissue had completely its tonicity. Under these conditions, the compounds of the invention, alone, were able to curatively and totally restore the contraction and therefore contribute extensively to vascular hyporesponsiveness to vasoconstrictor agents in shock. […]

[2] = system: EDRF; assay: Restoration of depressed response to catecholamines / inhibition of vascular hyporeactivity (general statement)
[3] = Blood pressure in pithed rats perfused with endotoxin; format: in vivo, Male Sprague Dawley rats; settings: endotoxin 300 μg/kg/h, 60 min
Protocol: Male Sprague Dawley rats (280-320 g) were pithed and perfused continuously with endotoxin (EDTX, Escherichia Coli lipopolysaccharide OIII: B4; 300 μg/kg/h) for 60 min. […] A 60 min perfusion of endotoxin lipopolysaccharide (300 μg/kg/h) to pithed rats led to hypotension and impaired the vascular reactivity to pressor agents as observed in septic and endotoxinic shock in human. […] Their effects on blood pressure are however less marked. Association of blockers of cyclooxygenase (aspirin, indomethacin for instance . . . ) and blockers of EDRF results on a highly significative synergistic protective effect in both vascular hyperactivity and decrease of blood pressure induced by shock.

[4] = system: vascular reactivity (methoxamine); assay: Vascular reactivity to methoxamine in pithed rats perfused with endotoxin (EDTX); format: in vivo, Male Sprague Dawley rats; settings: for inhibition of vascular hyporeactivity: pithed rats, endotoxin 300 μg/kg/h, 60 min
Protocol: Male Sprague Dawley rats (280-320 g) were pithed and perfused continuously with endotoxin (EDTX, Escherichia Coli lipopolysaccharide OIII: B4; 300 μg/kg/h) for 60 min.

Q: With `N=C(N)NCCC[C@H](N)C(=O)O` [L-arginine] as the molecule, how does the “effect on loss of tonicity in endotoxin treated preparation” value [1] read?
A: enhanced the loss of tonicity

Q: For `CNC(=N)NCCC[C@@H](N)C(=O)O` [(D) N-methyl arginine, reference compound], which “activity in the field of the present invention” value [2] is on record?
A: deprived of any activity

Q: Which results are given for `COC(=O)[C@@H](N)CCCNC(=N)N[N+](=O)[O-]` [L-NAME, L-nitroarginine methyl ester]?
A: effects on blood pressure [3]: less marked; inhibition of vascular hyporeactivity [4]: inhibited in a dose dependent manner; restoration of depressed response to catecholamines and inhibition of vascular hyporeactivity [2]: able to restore depressed response to catecholamines and to effectively inhibit vascular hyporeactivity

Q: For `CNC(=N)NCCC[C@H](N)C(=O)O` [L-NMMA, L-N-monomethyl arginine], which “effects on blood pressure” value [3] is on record?
A: less marked

Q: And the “inhibition of vascular hyporeactivity” value [4]?
A: inhibited in a dose dependent manner

Q: And the “restoration of depressed response to catecholamines and inhibition of vascular hyporeactivity” value [2]?
A: able to restore depressed response to catecholamines and to effectively inhibit vascular hyporeactivity

Q: Which ED50 ([4]; Rattus norvegicus, control rats, cumulative dose-response) does the source give for `COc1ccc(OC)c(C(O)C(C)N)c1` (stereo not drawn) [methoxamine, reference compound] here?
A: 0.079 ± 0.009 mg/kg

Q: For `CC(=N)NCCC[C@H](N)C(=O)O` [L-NIO, L-iminoethylornithine], which “effects on blood pressure” value [3] is on record?
A: less marked

Q: And the “inhibition of vascular hyporeactivity” value [4]?
A: inhibited in a dose dependent manner

Q: What about the “restoration of depressed response to catecholamines and inhibition of vascular hyporeactivity” value [2] of the same molecule?
A: able to restore depressed response to catecholamines and to effectively inhibit vascular hyporeactivity
